Source: PMC3098941 (ACS chemical biology, 2011)
pKd: −log10 of the molar value.

Key:
Assay type in all cases: binding
Akt1 = Akt1 (Homo sapiens, UniProt P31749); assay: ANS fluorescence titration of Akt; conditions: up to 100 μM ANS
Aurora A = target: T1, Aurora A (Homo sapiens, UniProt O14965); assay: ANS fluorescence titration of Aurora A; conditions: read-out: apparent Kd of ANS for Aurora A; Aurora A 5.8 μM, slit widths 10/10
T1 sequence (O14965 123-380): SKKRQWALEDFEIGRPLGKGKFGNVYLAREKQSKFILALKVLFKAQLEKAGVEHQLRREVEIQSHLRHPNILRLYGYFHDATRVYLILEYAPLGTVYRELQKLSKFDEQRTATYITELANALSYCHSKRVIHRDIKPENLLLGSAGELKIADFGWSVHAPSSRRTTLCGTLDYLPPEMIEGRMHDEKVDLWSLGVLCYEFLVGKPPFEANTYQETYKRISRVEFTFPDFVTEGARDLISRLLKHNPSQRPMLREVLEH

Rock1 = Rock1 (Homo sapiens, UniProt Q13464); assay: ANS fluorescence titration of Rock 1; conditions: up to 100 μM ANS
Sequence of Rock1 (Q13464 5-415): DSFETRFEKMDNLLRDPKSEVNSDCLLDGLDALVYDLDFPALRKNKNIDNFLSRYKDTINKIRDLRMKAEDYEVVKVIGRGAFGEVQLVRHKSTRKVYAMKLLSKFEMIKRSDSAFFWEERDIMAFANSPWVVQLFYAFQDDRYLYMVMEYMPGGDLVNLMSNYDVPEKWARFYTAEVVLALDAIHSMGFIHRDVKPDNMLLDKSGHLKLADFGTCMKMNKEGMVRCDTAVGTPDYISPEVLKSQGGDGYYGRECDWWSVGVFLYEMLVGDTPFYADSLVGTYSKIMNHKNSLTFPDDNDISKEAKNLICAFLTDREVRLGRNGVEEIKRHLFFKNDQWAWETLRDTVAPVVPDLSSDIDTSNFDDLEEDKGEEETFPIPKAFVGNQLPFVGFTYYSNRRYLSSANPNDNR

CDK2-ANS complex = CDK2-ANS complex (Homo sapiens, UniProt P24941); assay: Quenching of CDK2-ANS fluorescence by ligands; conditions: 50 μM ANS; for effect on CDK2-ANS fluorescence yield: concentrations as high as 300 μM, 1.6 μM CDK2

Sequence of Akt1 (P31749 whole entry): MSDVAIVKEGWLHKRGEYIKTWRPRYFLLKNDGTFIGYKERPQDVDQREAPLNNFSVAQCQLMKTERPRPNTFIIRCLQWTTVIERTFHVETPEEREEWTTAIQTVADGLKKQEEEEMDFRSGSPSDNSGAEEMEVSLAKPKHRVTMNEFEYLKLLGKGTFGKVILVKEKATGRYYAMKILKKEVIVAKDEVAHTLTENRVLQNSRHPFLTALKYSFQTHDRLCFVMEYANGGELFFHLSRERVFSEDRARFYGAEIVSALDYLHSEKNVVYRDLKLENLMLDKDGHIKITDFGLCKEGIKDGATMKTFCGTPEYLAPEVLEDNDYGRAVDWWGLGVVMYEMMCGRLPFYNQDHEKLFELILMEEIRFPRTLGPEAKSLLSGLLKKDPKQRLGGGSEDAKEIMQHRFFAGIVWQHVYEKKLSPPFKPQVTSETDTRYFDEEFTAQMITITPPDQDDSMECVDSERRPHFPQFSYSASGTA

Structure (SMILES)	saturation of ANS fluorescence with Akt (Akt1)	pKd (Aurora A)	saturation of ANS fluorescence with Rock 1 (Rock1)	effect on CDK2-ANS fluorescence yield (CDK2-ANS complex)	effect on CDK2-ANS fluorescence (CDK2-ANS complex; concentrations up to 100 μM)
O=S(=O)(O)c1cccc2cccc(Nc3ccccc3)c12 [ANS, 8-anilino-1-naphthalene sulfonate]	saturation was not reached	4.27	saturation was not reached	–	–
Nc1ncnc2c1ncn2[C@@H]1O[C@H](COP(=O)(O)OP(=O)(O)OP(=O)(O)O)[C@@H](O)[C@H]1O [ATP]	–	–	–	only marginally affected	did not appear to affect
COc1ccc(O)c(-c2nc(N)nc(N)n2)c1 [JWS648]	–	–	–	only marginally affected	–
